Test results as given in US5554653A, “Inhibitors of HIV protease useful for the treatment of AIDS” (Eli Lilly and Company, priority 1992, dated 1996).
Each block holds one molecule with its values, some of them ahead of it.

Molecular target: T1, HIV-1 protease (Human immunodeficiency virus type 1 group M subtype B, UniProt P04585)
T1 construct: Purified HIV-1 protease was obtained as described above; made in house; host or cells: E. coli K12 L507/pHP10D (NRRL B-18560)
Experiment: biochemical
Assay type: biochemical
Settings: for IC50: read-out: Fluorescence Assay IC50 (converted)
Method: C. Preparation of Protease Fraction
A culture of E. coli K12 L507/pHP10D was grown to mid-log phase at 32° C. in LB media containing 12.5 μg/ml tetracycline. The cultivation temperature was quickly elevated to 40° C. to induce gene expression, and the cells were allowed to grow for 2.5 hours at this temperature before the culture was quickly chilled on ice. The cells were centrifuged and the cell pellet was resuspended in 20 mL 50 mmol MES buffer (pH 6.0) containing 1 mmol EDTA, 1 mmol DTT, 1 mmol PMSF and 10% glycerol ("Buffer A"). Cells were lysed by sonication using a Fischer Model 300 Dismembrator and a microtip probe. Following centrifugation at 27,000×g, the supernatant was diluted to a total volume of 60 mL with Buffer A and loaded onto a 2.0×19 cm QAE-Sepharose column (1 mL/min, 4° C.), that had been equilibrated in Buffer A. The column was washed isocratically for 180 min and then eluted with a gradient eluent of 0-1.0M sodium chloride in Buffer A over 120 min. Enzymatic activity was measured by HPLC using the synthetic peptide SQNYPIV as described in Margolin et al., Biochem. Biophys. Res. Commun., 167, 554-560 (1990); the production of the p1 peptide (SQNY) was measured.
The active fractions were combined, made 1.2M in ammonium sulfate, and applied to a 2.0×18 cm hexyl agarose column that had been equilibrated in Buffer A containing 1.2M ammonium sulfate. The sample was loaded at a flow rate of 1 mL/min at 4° C., washed with the equilibration buffer for 240 min (1 mL/min) and then eluted using a reverse linear gradient of 1.2-0M ammonium sulfate in Buffer A for 120 min at the same flow rate. The column was then washed isocratically in Buffer A for 120 min.
The active fractions were combined, concentrated to 10 mL using an Amicon stirred cell with a YM-10 membrane and then applied to a MonoS cation exchange column (1.0×10 cm) that had been equilibrated in Buffer A. The sample was loaded at a flow rate of 1 mL/min at 25° C. After washing isocratically for 30 min, the protease was eluted using a linear gradient of 0-0.45M sodium chloride in Buffer A over 40 min. The column was washed isocratically in Buffer A containing 0.45M sodium chloride for 30 min.
The active fractions were combined and concentrated to 200 μL using an Amicon stirred cell and a YM-10 membrane and then the protease was applied to a Superose 6 size exclusion column equilibrated in Buffer A containing 0.1M sodium chloride.
The purified peptide was labeled with a fluorescent marker at the C-terminal end for use in the Pandex assay. N^α -Biotin-[…]OH SEQ ID NO:3. (1.206 g, 0.936 mmol) was dissolved in 100 mL of 0.1M sodium borate, pH 9.5. Then, a solution of 3 g (7.7 mmol) of fluorescein isothiocyanate in 15 mL dimethyl sulfoxide was added to the reaction mixture in 10 equal portions over two hours. The resulting mixture was allowed to react for one hour after the final addition. The solution was adjusted to pH 3 using 5N hydrochloric acid, resulting in the formation of a precipitate which was removed by centrifugation.
E. Fluorescence HIV-1 Protease Inhibitor Assay
The following buffers and solutions are used in the Fluorescence HIV-1 Protease Inhibitor Assay:
MES-ALB Buffer: 0.05M 4-morpholineethane
Avidin Coated 0.1% solution of Fluoricon
Beads Solution: Avidin Assay Particles
(Avidin conjugated to solid
polystyrene beads, 0.6-0.8
microns in diameter in TBSA
27 IU/mL of purified HIV-1
protease in MES-ALB buffer
(1 IU equals the amount of
enzyme required to hydrolyze
1 μmole of substrate per
To each well of a round bottom, 96-well plate is added 20 μL of the Enzyme Solution followed by 10 μL of the compound to be evaluated in a 20% aqueous dimethylsulfoxide solution. Purified HIV-1 protease was obtained as described above.

Compound: CC(=O)N[C@H](CC(=O)NCc1ccccn1)C(=O)N[C@@H](Cc1ccccc1)[C@H](O)Cc1ccccc1C(=O)NC(C)(C)C [Example 2, [2R-(2R*, 3S*, 6R*)]-N-t-Butyl-2-[2-hydroxy-3-phenylmethyl-4-aza-5-oxo-6-N(ethanoyl)amino-8-oxo-9-aza-10-pyrid-2-yl]decyl benzamide]
IC50: 451 nM

Compound: CC(=O)N[C@H](CC(=O)Nc1cnc2ccccc2c1)C(=O)N[C@@H](Cc1ccccc1)[C@H](O)Cc1ccccc1C(=O)NC(C)(C)C [Example 3, [2R-(2R*, 3S*, 6R*)]-N-t-butyl-2-[2-hydroxy-3-phenylmethyl-4-aza-5-oxo-6-N(ethanoyl)amine-8-oxo-8-N (quinolin-3-yl)amine]octyl benzamide]
IC50: 548 nM

Compound: CC(=O)N[C@H](CC(=O)NCc1ccccc1)C(=O)N[C@@H](Cc1ccccc1)[C@H](O)Cc1ccccc1C(=O)NC(C)(C)C [Example 4, [2R-(2R*, 3S*, 6R *]-N-t-butyl-2-[2-hydroxy-3-phenylmethyl-4-aza-5-oxo-6-N (ethanoyl)amino-8-oxo-9-aza-10-phenyl]decylbenzamide]
IC50: 341 nM

Compound: CN(C)S(=O)(=O)N[C@H](CC(=O)OCc1ccccc1)C(=O)N[C@@H](Cc1ccccc1)[C@H](O)Cc1ccccc1C(=O)NC(C)(C)C [Example 5, [2R-(2R*, 3S *, 6R*)]-N-t-butyl-2-[2-hydroxy-3-phenylmethyl-4-aza-5-oxo-6-N(dimethylaminosulfonyl)amino-7-benzyloxycarbonyl]heptyl benzamide]
IC50: 8.58 nM

Compound: CCC(=O)N[C@H](CC(=O)OCc1ccccc1)C(=O)N[C@@H](Cc1ccccc1)[C@H](O)Cc1ccccc1C(=O)NC(C)(C)C [Example 6, [2R-(2R*,3S*,6R*)]-N-t-butyl-2-[2-hydroxy-3-phenylmethyl-4-aza-5-oxo-6-N(propanoyl)amino-7-benzyloxycarbonyl]heptyl benzamide]
IC50: 26.6 nM

Compound: CCCC(=O)N[C@H](CC(=O)OCc1ccccc1)C(=O)N[C@@H](Cc1ccccc1)[C@H](O)Cc1ccccc1C(=O)NC(C)(C)C [Example 7, [2R-(2R*, 3S *, 6R*)]-N-t-butyl-2-[2-hydroxy-3-phenylmethyl-4-aza-5-oxo-6-N(butanoyl)amino-7-benzyloxycarbonyl]heptyl benzamide]
IC50: 115 nM

Compound: CC(C)(C)NC(=O)c1ccccc1C[C@@H](O)[C@H](Cc1ccccc1)NC(=O)[C@@H](CC(=O)Nc1ccc2ccccc2n1)NS(C)(=O)=O [Example 9, [2R-(2R*, 3S*, 6R*)]-N-t-butyl-2-[2-hydroxy-3-phenylmethyl-4-aza-5-oxo-6-N-(methylsulphonyl)amino-8-oxo-8-N (quinolin-2-yl)amino]octyl benzamide]
IC50: 13.6 nM

Compound: CC(C)(C)NC(=O)c1ccccc1C[C@@H](O)[C@H](Cc1ccccc1)NC(=O)[C@@H](CC(=O)NCc1ccccc1)NS(C)(=O)=O [Example 10, [2R-(2R*, 3S*, 6R*)]-N-t-butyl-2-[2-hydroxy-3-phenylmethyl-4-aza-5-oxo-6-N(methylsulfonyl)amino-8-oxo-8-N(benzyl)amino]octyl benzamide]
IC50: 4.34 nM

Compound: CC(C)(C)NC(=O)c1ccccc1C[C@@H](O)[C@H](Cc1ccccc1)NC(=O)[C@@H](CC(=O)NCc1ccc2ccccc2n1)NS(C)(=O)=O [Example 11, [2R-(2R*, 3S*, 6R)]-N-t-butyl-2-[2-hydroxy-3-phenylmethyl-4-aza-5-oxo-6-N(methylsulfonyl)amino-8-oxo-9-aza-10-quinolin-2-yl]decyl benzamide]
IC50: 2.52 nM

Compound: CC(C)(C)NC(=O)c1ccccc1C[C@@H](O)[C@H](Cc1ccccc1)NC(=O)[C@@H](CC(=O)OCc1ccccc1)NC(N)=O [Example 12, [2R-(2R*, 3S*, 6R*)]-N-t-butyl-2-[2-hydroxy-3-phenylmethyl-4-aza-5-oxo-6-N(carbamoyl)amino-7-benzyloxycarbonyl]heptyl benzamide]
IC50: 28.9 nM

Compound: CC(C)(C)NC(=O)c1ccccc1C[C@@H](O)[C@H](Cc1ccccc1)NC(=O)[C@@H](COCc1ccccc1)NS(C)(=O)=O [Example 14, [2R-(2R*, 3S*, 6R*)]-N-t-Butyl-2-[2-hydroxy-3-phenylmethyl-4-aza-5-oxo-6-N (methylsulfonyl)amino-7-benzyloxy]heptyl benzamide]
IC50: 43.6 nM

Compound: CC(C)(C)NC(=O)c1ccccc1C[C@@H](O)[C@H](Cc1ccccc1)NC(=O)[C@@H](CSc1ccc2ccccc2c1)NC(=O)OC(C)(C)C [Example 15A, [2R-(2R*,3S*,6S*)]-N-t-Butyl-2-[2-hydroxy-3-phenylmethyl-4-aza-5-oxo-6-N(t-butoxycarbonyl)amino-7-naphth-2-ylthio]heptyl benzamide]
IC50: > 1490 nM

Next, values leading:

IC50: 130 nM
Compound: CC(=O)N[C@H](CSc1ccccc1)C(=O)N[C@@H](Cc1ccccc1)[C@H](O)Cc1ccccc1C(=O)NC(C)(C)C (relative stereo) [Example 20A, [2R(2R*,3S*,6S*)]-N-t-Butyl-2-[2-hydroxy-3-phenylmethyl-4-aza-5-oxo-6-N(ethanoyl)amino-7-phenylthio]heptyl benzamide]

IC50: 56.1 nM
Compound: CC(=O)N[C@H](CC(=O)OCc1ccccc1)C(=O)N[C@@H](Cc1ccccc1)[C@H](O)Cc1ccccc1C(=O)NC(C)(C)C [Example 1C, [2R-(2R*, 3S*, 6R*)1-N-t-Butyl-2-[2-hydroxy-3-phenylmethyl-4-aza-5-oxo-6-N(ethanoyl)amino-7-benzyloxycarbonyl]heptylbenzamide]

IC50: 3.69 nM
Compound: CC(C)(C)NC(=O)c1ccccc1C[C@@H](O)[C@H](Cc1ccccc1)NC(=O)[C@@H](CC(=O)OCc1ccccc1)NS(C)(=O)=O [Example 8A, [2R-(2R*,3S*, 6R*)]-N-t-butyl-2-[2-hydroxy-3-phenylmethyl-4-aza-5-oxo-6-N(methylsulfonyl)amino-7-benzyloxycarbonyl]heptyl benzamide]

IC5 (read-out: Fluorescence Assay IC5): 1 µg/mL
Compound: CC(C)(C)NC(=O)c1ccccc1C[C@@H](O)[C@H](Cc1ccccc1)NC(=O)[C@H](N)COCc1ccccc1 [Example 13B, [2R-(2R*,3S*,6R*)]-N-t-Butyl-2-[2-hydroxy-3-phenylmethyl-4-aza-5-oxo-6-amino-7-benzyloxy]heptyl benzamide]

IC50: 230 nM
Compound: CC(=O)N[C@H](COCc1ccccc1)C(=O)N[C@@H](Cc1ccccc1)[C@H](O)Cc1ccccc1C(=O)NC(C)(C)C [Example 13C, [2R-(2R*, 3S*, 6R*)]-N-t-Butyl-2-[2-hydroxy-3-phenylmethyl-4-aza-5-oxo-6-N(ethanoyl)amino-7-benzyloxy]heptyl benzamide]

IC50: 223 nM
Compound: CC(C)(C)NC(=O)c1ccccc1C[C@@H](O)[C@H](Cc1ccccc1)NC(=O)[C@H](N)CSc1ccc2ccccc2c1 [Example 15B, [2R-(2R*,3S*,6S*)]-N-t-Butyl-2-[2-hydroxy-3-phenylmethyl-4-aza-5-oxo-6-amino-7-naphth-2-ylthio]heptyl benzamide]

IC50: 10.6 nM
Compound: CC(=O)N[C@H](CSc1ccc2ccccc2c1)C(=O)N[C@@H](Cc1ccccc1)[C@H](O)Cc1ccccc1C(=O)NC(C)(C)C [Example 16A, [2R-(2R*, 3S*, 6S*)]-N-t-Butyl-2-[2-hydroxy-3-phenylmethyl-4-aza-5-oxo-6-N (ethanoyl)amino-7-naphth-2-ylthio]heptyl benzamide]

IC50: 0.186 nM
Compound: CC(=O)N[C@H](CS(=O)(=O)c1ccc2ccccc2c1)C(=O)N[C@@H](Cc1ccccc1)[C@H](O)Cc1ccccc1C(=O)NC(C)(C)C [Example 16B, [2R-(2R*,3S*,6S*)]-N-t-Butyl-2-[2-hydroxy-3-phenylmethyl-4-aza-5-oxo-6-N(ethanoyl)amino-7-naphth-2-ylsulfonyl]heptyl benzamide]
